Key:
Conditions in all cases: incubation time: 72 h
MCF-10A = assay: drug sensitivity score (DSS), CellTiter-Glo (DSS (AUC-based score)); higher = stronger drug effect (viability inhibition or cytotoxicity); extreme values may be limits of the assay
In short: (§1)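 Breast cancer cell lines were seeded in 20 µl suspension into 384-well plates already holding compound and incubated for 72 h. Each compound was tested at 5 concentrations in 10-fold steps across its own 10,000-fold range. Plates were normalised to 0.1 % DMSO and a positive kill control after CellTox Green and then CellTiter-Glo readings. The area under the fitted dose-response curve served as the basis for the drug sensitivity score.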

MDA-MB-436 = assay: as above
In short: as §1

HCC1143 [1] = assay: as above
In short: as §1

MFM-223 = assay: as above
In short: as §1

MDA-MB-453 [2] = assay: as above
In short: as §1

DU-4475 [3] = assay: as above
In short: as §1

HDQ-P1 [4] = assay: as above
In short: as §1

HCC1599 [5] = assay: as above
In short: as §1

MDA-MB-468 = assay: normalised viability (% of control), CellTiter-Blue; higher = more viable cells (about 100 = DMSO control)
In short: (§2)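 Each entry is normalised viability at a single listed concentration within a series. It comes from breast cancer cell lines incubated 72 h with compound in 384-well plates, then measured with CellTiter-Blue fluorescence at 560/590 nm. Every plate was normalised between vehicle (100) and a positive kill control (0).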

HCC1143 [6] = assay: as above
In short: as §2

HCC1937 = assay: as above
In short: as §2

BT-474 = assay: as above
In short: as §2

CAL-51 [7] = assay: as above
In short: as §2

SK-BR-3 = assay: as above
In short: as §2

CAL-85-1 [8] = assay: as above
In short: as §2

BT-549 = assay: as above
In short: as §2

HDQ-P1 [9] = assay: as above
In short: as §2

HCC1599 [10] = assay: as above
In short: as §2

MDA-MB-231 = assay: as above
In short: as §2

MDA-MB-453 [11] = assay: normalised viability (% of control), CellTiter-Blue; higher = more viable cells (about 100 = DMSO control)
Method: (§3)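 DSRT, CellTiter-Blue viability, 72 h incubation. Signal is normalised to DMSO and benzethonium chloride controls. Value is the normalised response at dose 8.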

CAL-51 [12] = assay: as above; remark: listed apart in the source
Method: as §3

DU-4475 [13] = assay: as above
Method: as §3

CAL-85-1 [14] = assay: as above; remark: listed apart in the source
Method: as §3

CAL-148 = assay: as above
Method: as §3

HDQ-P1 [15] = assay: as above; remark: listed apart in the source
Method: as §3

O=C(O)C1(C(=O)O)CCC1.[NH2-].[NH2-].[Pt+2] [Carboplatin]
Conditions | drug sensitivity score
DU-4475 [3] | 0
HCC1143 [1] | 0
HCC1599 [5] | 0
HDQ-P1 [4] | 0
MCF-10A | 0
MDA-MB-436 | 0
MDA-MB-453 [2] | 0
MFM-223 | 0

Conditions | normalised viability [%]
BT-474, 10 nM | 127
BT-474, 1000 nM | 121
BT-474, 10000 nM | 113
BT-549, 10 nM | 83.4
BT-549, 1000 nM | 92
BT-549, 10000 nM | 87.7
CAL-51 [7], 3 nM | 104
CAL-51 [7], 30 nM | 99
CAL-51 [7], 100 nM | 96.2
CAL-51 [12], 3000 nM | 115
CAL-85-1 [8], 3 nM | 98
CAL-85-1 [8], 30 nM | 82.2
CAL-85-1 [8], 100 nM | 99.6
CAL-85-1 [14], 3000 nM | 87.7
CAL-148, 3000 nM | 86
DU-4475 [13], 3000 nM | 107
HCC1143 [6], 10 nM | 79.8
HCC1143 [6], 1000 nM | 87.1
HCC1143 [6], 10000 nM | 87.7
HCC1599 [10], 10 nM | 94.5
HCC1599 [10], 1000 nM | 90.7
HCC1599 [10], 10000 nM | 87.1
HCC1937, 10 nM | 82.3
HCC1937, 1000 nM | 103
HCC1937, 10000 nM | 54.2
HDQ-P1 [9], 3 nM | 108
HDQ-P1 [9], 30 nM | 107
HDQ-P1 [9], 100 nM | 103
HDQ-P1 [15], 3000 nM | 86
MDA-MB-231, 10 nM | 85.8
MDA-MB-231, 1000 nM | 113
MDA-MB-231, 10000 nM | 93.7
MDA-MB-453 [11], 3000 nM | 105
MDA-MB-468, 10 nM | 100
MDA-MB-468, 1000 nM | 98.9
MDA-MB-468, 10000 nM | 83.3
SK-BR-3, 10 nM | 100
SK-BR-3, 1000 nM | 103
SK-BR-3, 10000 nM | 113

Oc1ncc(N(CCCl)CCCl)c(O)n1 [Uracil mustard]
Conditions | drug sensitivity score
DU-4475 [3] | 0
HCC1143 [1] | 0
HCC1599 [5] | 0
HDQ-P1 [4] | 0
MCF-10A | 0
MDA-MB-436 | 0
MDA-MB-453 [2] | 0
MFM-223 | 0

Conditions | normalised viability [%]
BT-474, 10 nM | 122
BT-474, 1000 nM | 120
BT-474, 10000 nM | 116
BT-549, 10 nM | 93.4
BT-549, 1000 nM | 103
BT-549, 10000 nM | 90.6
CAL-51 [7], 3 nM | 96.7
CAL-51 [7], 30 nM | 96.7
CAL-51 [7], 100 nM | 95.7
CAL-51 [12], 3000 nM | 99.6
CAL-85-1 [8], 3 nM | 94.2
CAL-85-1 [8], 30 nM | 94.2
CAL-85-1 [8], 100 nM | 96.7
CAL-85-1 [14], 3000 nM | 93.8
CAL-148, 3000 nM | 113
DU-4475 [13], 3000 nM | 105
HCC1143 [6], 10 nM | 78.4
HCC1143 [6], 1000 nM | 84.8
HCC1143 [6], 10000 nM | 92.6
HCC1599 [10], 10 nM | 82.1
HCC1599 [10], 1000 nM | 78.4
HCC1599 [10], 10000 nM | 92.7
HCC1937, 10 nM | 143
HCC1937, 1000 nM | 82.4
HCC1937, 10000 nM | 66.7
HDQ-P1 [9], 3 nM | 124
HDQ-P1 [9], 30 nM | 111
HDQ-P1 [9], 100 nM | 107
HDQ-P1 [15], 3000 nM | 115
MDA-MB-231, 10 nM | 100
MDA-MB-231, 1000 nM | 103
MDA-MB-231, 10000 nM | 89.5
MDA-MB-453 [11], 3000 nM | 92.8
MDA-MB-468, 10 nM | 109
MDA-MB-468, 1000 nM | 97.5
MDA-MB-468, 10000 nM | 85.7
SK-BR-3, 10 nM | 109
SK-BR-3, 1000 nM | 95.1
SK-BR-3, 10000 nM | 79.8

COc1cc2c(Oc3ccc4[nH]c(C)cc4c3F)ncnc2cc1OCCCN1CCCC1 [Cediranib]
Conditions | drug sensitivity score
DU-4475 [3] | 0
HCC1143 [1] | 0
HCC1599 [5] | 0
HDQ-P1 [4] | 0
MCF-10A | 0
MDA-MB-436 | 0
MDA-MB-453 [2] | 0
MFM-223 | 1.86

Conditions | normalised viability [%]
BT-474, 1 nM | 109
BT-474, 100 nM | 101
BT-474, 1000 nM | 91.1
BT-549, 1 nM | 108
BT-549, 100 nM | 104
BT-549, 1000 nM | 70.8
CAL-51 [7], 0.3 nM | 90.5
CAL-51 [7], 3 nM | 88.7
CAL-51 [7], 10 nM | 88.6
CAL-51 [12], 300 nM | 90.7
CAL-85-1 [8], 0.3 nM | 104
CAL-85-1 [8], 3 nM | 96.5
CAL-85-1 [8], 10 nM | 99.8
CAL-85-1 [14], 300 nM | 103
CAL-148, 300 nM | 101
DU-4475 [13], 300 nM | 98.8
HCC1143 [6], 1 nM | 128
HCC1143 [6], 100 nM | 120
HCC1143 [6], 1000 nM | 112
HCC1599 [10], 1 nM | 101
HCC1599 [10], 100 nM | 114
HCC1599 [10], 1000 nM | 76.7
HCC1937, 1 nM | 66.2
HCC1937, 100 nM | 78.5
HCC1937, 1000 nM | 83.4
HDQ-P1 [9], 0.3 nM | 84.8
HDQ-P1 [9], 3 nM | 90.6
HDQ-P1 [9], 10 nM | 100
HDQ-P1 [15], 300 nM | 88.3
MDA-MB-231, 1 nM | 84.7
MDA-MB-231, 100 nM | 83.7
MDA-MB-231, 1000 nM | 92
MDA-MB-453 [11], 300 nM | 86.2
MDA-MB-468, 1 nM | 92.5
MDA-MB-468, 100 nM | 89.7
MDA-MB-468, 1000 nM | 95.2
SK-BR-3, 1 nM | 100
SK-BR-3, 100 nM | 95.7
SK-BR-3, 1000 nM | 104

N#Cc1ccc(C(c2ccc(C#N)cc2)n2cncn2)cc1 [Letrozole]
Conditions | drug sensitivity score
DU-4475 [3] | 0
HCC1143 [1] | 0
HCC1599 [5] | 0
HDQ-P1 [4] | 0
MCF-10A | 0
MDA-MB-436 | 0
MDA-MB-453 [2] | 0
MFM-223 | 0

Conditions | normalised viability [%]
BT-474, 10 nM | 105
BT-474, 1000 nM | 109
BT-474, 10000 nM | 109
BT-549, 10 nM | 83.5
BT-549, 1000 nM | 84
BT-549, 10000 nM | 90.5
CAL-51 [7], 3 nM | 115
CAL-51 [7], 30 nM | 107
CAL-51 [7], 100 nM | 103
CAL-51 [12], 3000 nM | 111
CAL-85-1 [8], 3 nM | 86.9
CAL-85-1 [8], 30 nM | 85
CAL-85-1 [8], 100 nM | 87.1
CAL-85-1 [14], 3000 nM | 90
CAL-148, 3000 nM | 95.5
DU-4475 [13], 3000 nM | 85.8
HCC1143 [6], 10 nM | 85.4
HCC1143 [6], 1000 nM | 90.7
HCC1143 [6], 10000 nM | 78.4
HCC1599 [10], 10 nM | 81.2
HCC1599 [10], 1000 nM | 70.7
HCC1599 [10], 10000 nM | 81.9
HCC1937, 10 nM | 81.8
HCC1937, 1000 nM | 82.6
HCC1937, 10000 nM | 82
HDQ-P1 [9], 3 nM | 90.8
HDQ-P1 [9], 30 nM | 79.5
HDQ-P1 [9], 100 nM | 84.5
HDQ-P1 [15], 3000 nM | 94
MDA-MB-231, 10 nM | 86.3
MDA-MB-231, 1000 nM | 87.8
MDA-MB-231, 10000 nM | 95.5
MDA-MB-453 [11], 3000 nM | 105
MDA-MB-468, 10 nM | 101
MDA-MB-468, 1000 nM | 115
MDA-MB-468, 10000 nM | 92.7
SK-BR-3, 10 nM | 79.4
SK-BR-3, 1000 nM | 103
SK-BR-3, 10000 nM | 85.2

Reference: the supplement of paper PMC4862054
